Data from patent EP0982027A1, “Taxoid derivatives for treating abnormal cell proliferation of the brain” (RHONE-POULENC RORER S.A., priority 1998, dated 2000).
Where “and” joins values, the source holds several entries; their conditions need not be identical. Equal values may be shown once. Read-outs that look alike come from different tables or passages of the source.

Test: in vivo
Set-up: species or system female C3H/HeN mice
Details: mouse, 40 mg.kg^-1 i.v.; for AUC0-∞: mean level data
Experimental: Groups of female C3H/HeN mice received the product by the intravenous route as a bolus at a dose level of 40 mg.kg^-1 equivalent to 120 mg.m^-2. Blood and brain samples were obtained from all dosed animals sacrificed at intervals up to 72 hours post dose. Brain and corresponding plasma samples have been assayed for product Ia content by an LC-MS/MS assay.
• Formulation: 2.25 mg.ml^-1 solution containing 5 % Polysorbate 80, 5 % ethanol and 90 % of an aqueous 5 % glucose solution. […]
• Sampling : Blood by cardiac puncture and liver and brain by dissection after CO2 sacrifice • Sample Times : at 2, 5, 15, 30, 45 minutes, 1, 2, 4, 6, 8, 14, 24, 48 and 72 hours post dose.
Whole blood was collected into heparinised tubes and corresponding plasma samples were obtained by centrifugation and frozen immediately at -20°C. Tissues were blotted, weighed and frozen immediately at -20°C. All samples were dispatched frozen for analysis. Upon receipt, samples were stored frozen at approximately -18°C pending analysis.
• Detection: LC-MS/MS (Sciex API III plus) in turbo-ionspray mode
The following MS conditions were applied:
Column: 75 x 4.6 mm Supelcosil ABZ plus (3 µm). Mobile phase: Acetonitrile/methanol/ammonium acetate (10mM); 40/25/35 v/v/v. Flow rate : 1 ml.min^-1. Temperature : Ambient. Extraction : Plasma: Add 100 µl of acetonitrile to sample (50 µl). Vortex, centrifuge, remove supernatant, add 100 µl of mobile phase and inject 150 µl. Brain : Add 100 µl of acetonitrile to homogenised sample (100 mg of a 1:1 w/w brain with water homogenate) and vortex. Add 1ml of diethyl ether, vortex, centrifuge, remove organic layer and dry under N2. Reconstitute in 200 µl of mobile phase and inject 150 µl. Calibration standards: Plasma : Nine at concentrations of 5, 10, 20, 50, 100, 200, 300, 400 & 500 ng.ml^-1 (product Ia). Prepared by adding suitable aliquots of the product (concentrations = 0.1, 1 or 10 µg.ml^-1) in ethanol to 0.5 ml aliquots of mouse plasma. Each sample was vortexed following drug addition; a 50 µl aliquot was then removed for assay. Brain : Eleven at concentrations of 10, 20, 30, 100, 200, 300, 400, 500, 1000, 2500 & 5000 ng.g^-1 in homogenised mouse brain (1:1 w/w brain with water). Prepared by adding suitable aliquots of the product (concentrations = 1, 10 or 100 µg.ml^-1) in ethanol to 0.5, 1, 3 or 4 g of homogenised mouse brain. Each sample was vortexed following drug addition and a 100 mg aliquot was then removed for assay. Retention times: Drug; product Ia: ∼2.3 min. Extraction efficiency : Plasma : ca.58 % at 200 ng.ml^-1. Brain : ca.41 % at 500 ng.g^-1 and 39 % at 1000 ng.g^-1.
A biexponential equation was fitted to the profiles using an interactive linear least-square algorithm as part of the SIPHAR package.
AUC0-∞: Area under the plasma or brain concentration versus time curve from t=0 (start of infusion) to infinity. Initial T1/2: Initial (distribution) half-life. Terminal T1/2: Terminal (elimination) half-life (should be regarded as an estimate only being dependent on sampling frequency in the terminal phase and assay sensitivity). ClT: Total plasma clearance. Vdss: Volume of distribution at steady state. n.a.: Not applicable.

In the case of CO[C@H]1C(=O)[C@]2(C)[C@@H](OC)C[C@H]3OC[C@@]3(OC(C)=O)[C@H]2[C@H](OC(=O)c2ccccc2)[C@]2(O)C[C@H](OC(=O)[C@H](O)[C@@H](NC(=O)OC(C)(C)C)c3ccccc3)C(C)=C1C2(C)C [product Ia, 4α-acetoxy-2α-benzoyloxy-5β,20-epoxy-1β-hydroxy-7β,10β-dimethoxy-9-oxo-11-taxen-13α-yl (2R,3S)-3 tert-butoxycarbonylamino-2-hydroxy-3-phenylpropionate], the “AUC0-∞” value (Brain, extrapolated from 72h to infinity) is reported as 788 h.µg.g^-1 and 787.8* h.µg.g^-1, the ClT (Plasma#, calculated from values ≥ b.l.q. of 20 ng.ml^-1) is reported as 21.7 mL/min/kg and the ClT (Plasma+, calculated from values ≥ l.o.d. of 4 ng.ml^-1) is reported as 21.7 mL/min/kg. For the same compound, the “AUC0-∞” value (Plasma+, calculated from values ≥ l.o.d. of 4 ng.ml^-1, listed as product Ic, 40 mg/kg) was 30.0 µg·h/mL, the Cmax at 14 h (brain, iv, at 14h, read-out: brain peak levels) was 9100 ng/g and the half-life (iv, Brain, read-out: Terminal T1/2 (converted)) was 31.4 h. For the same compound, the clearance (iv, Plasma+, calculated from values ≥ l.o.d. of 4 ng.ml^-1, read-out: ClT (converted)) was 21.7 mL/min/kg, the “time post dose up to which plasma levels were consistently above the limit of detection” value (limit 4 ng.ml^-1) was “up to 24 h” and the “time post dose up to which plasma levels persisted above the limit of accurate quantification” value (limit 20 ng.ml^-1) was “up to 14 h”. The “Plasma product Ic concentration” value (2 min after dose, individual animals IV1-IV4, 40 mg/kg, 2 min) was 45942 ng/mL and 49607 ng/mL and 38994 ng/mL, the “Brain product Ic concentration” value (2 min after dose, individual animals IV1-IV4, listed as product Ic, 40 mg/kg, 2 min) was 8817 ng/g and 8147 ng/g and 7630 ng/g and the “Plasma product Ic concentration” value (5 min after dose, individual animals IV1-IV4, 40 mg/kg, 5 min) was 33538 ng/mL and 32077 ng/mL and 34903 ng/mL. The “Brain product Ic concentration” value (5 min after dose, individual animals IV1-IV4, listed as product Ic, 40 mg/kg, 5 min) was 8473 ng/g and 7762 ng/g and 8091 ng/g, the “Plasma product Ic concentration” value (15 min after dose, individual animals IV1-IV4, 40 mg/kg, 15 min) was 20897 ng/mL and 21051 ng/mL and 19459 ng/mL and the “Brain product Ic concentration” value (15 min after dose, individual animals IV1-IV4, listed as product Ic, 40 mg/kg, 15 min) was 7100 ng/g and 7641 ng/g and 6481 ng/g. The “Plasma product Ic concentration” value (0.5h after dose, individual animals IV1-IV4, 40 mg/kg, 30 min) was 10344 ng/mL and 9170 ng/mL and 11232 ng/mL, the “Brain product Ic concentration” value (0.5h after dose, individual animals IV1-IV4, listed as product Ic, 40 mg/kg, 30 min) was 6788 ng/g and 8317 ng/g and 6894 ng/g and the “Plasma product Ic concentration” value (0.75h after dose, individual animals IV1-IV4, 40 mg/kg, 45 min) was 10948 ng/mL and 8121 ng/mL and 10148 ng/mL. The “Brain product Ic concentration” value (0.75h after dose, individual animals IV1-IV4, listed as product Ic, 40 mg/kg, 45 min) was 8086 ng/g and 7513 ng/g and 7272 ng/g, the “Plasma product Ic concentration” value (1h after dose, individual animals IV1-IV4, 40 mg/kg, 60 min) was 7423 ng/mL and 6693 ng/mL and 6079 ng/mL and the “Brain product Ic concentration” value (1h after dose, individual animals IV1-IV4, listed as product Ic, 40 mg/kg, 60 min) was 6424 ng/g and 8964 ng/g and 1747 ng/g and 7489 ng/g. For the same compound, the “Brain product Ic concentration” value (2h after dose, individual animals IV1-IV4, listed as product Ic, 40 mg/kg, 120 min) was 8418 ng/g and 6966 ng/g and 7017 ng/g, the “Plasma product Ic concentration” value (4h after dose, individual animals IV1-IV4, 40 mg/kg, 240 min) was 1110 ng/mL and 835 ng/mL and 830 ng/mL and the “Brain product Ic concentration” value (4h after dose, individual animals IV1-IV4, listed as product Ic, 40 mg/kg, 240 min) was 6939 ng/g and 6712 ng/g and 5459 ng/g. The “Plasma product Ic concentration” value (6h after dose, individual animals IV1-IV4, 40 mg/kg, 360 min) was 316 ng/mL and 346 ng/mL and 336 ng/mL, the “Brain product Ic concentration” value (6h after dose, individual animals IV1-IV4, listed as product Ic, 40 mg/kg, 360 min) was 6688 ng/g and 7968 ng/g and 7350 ng/g and 3712 ng/g and the “Plasma product Ic concentration” value (8h after dose, individual animals IV1-IV4, 40 mg/kg, 480 min) was 199 ng/mL and 195 ng/mL and 154 ng/mL. The “Brain product Ic concentration” value (8h after dose, individual animals IV1-IV4, listed as product Ic, 40 mg/kg, 480 min) was 6977 ng/g and 8616 ng/g and 8342 ng/g, the “Plasma product Ic concentration” value (14h after dose, individual animals IV1-IV4, 40 mg/kg, 840 min) was 56 ng/mL and 50 ng/mL and 52 ng/mL and the “Brain product Ic concentration” value (14h after dose, individual animals IV1-IV4, listed as product Ic, 40 mg/kg, 840 min) was 10049 ng/g and 7595 ng/g and 9271 ng/g. For the same compound, the “Brain product Ic concentration” value (24 h after dose, individual animals IV1-IV4, listed as product Ic, 40 mg/kg, 1440 min) was 9842 ng/g and 7885 ng/g and 9052 ng/g, the “Plasma product Ic concentration” value (24 h after dose, individual animals IV1-IV4, values flagged blq (below limit of accurate quantification, 20 ng.ml^-1), 40 mg/kg, 1440 min) was 15(blq) ng.ml^-1 (2×) and 16(blq) ng.ml^-1 and the “Plasma product Ic concentration” value (48 h after dose, individual animals IV1-IV4, blq = below 20 ng.ml^-1, n.d. = not detected (≤ l.o.d. of 4 ng.ml^-1)) was 4(blq) ng.ml^-1. For the same compound, the “Brain product Ic concentration” value (48 h after dose, individual animals IV1-IV4, listed as product Ic, 40 mg/kg, 2880 min) was 8541 ng/g and 7704 ng/g and 7986 ng/g, the “Brain product Ic concentration” value (72 h after dose, individual animals IV1-IV4, listed as product Ic, 40 mg/kg, 4320 min) was 5511 ng/g and 5692 ng/g and 3894 ng/g and the “Plasma product Ic concentration” value (time after dose printed as '-' (line between 1h and 4h), MEAN) was 4283 ng/mL. The “Plasma product Ic concentration” value (time after dose printed as '-' (line between 1h and 4h), individual animals IV1-IV4, 40 mg/kg) was 4633 ng/mL and 4337 ng/mL and 4600 ng/mL and 3564 ng/mL, the concentration at 2 min (brain, iv, 40 mg/kg, 2 min after dose, MEAN, read-out: Brain product Ic concentration) was 7890 ng/g and the concentration at 2 min (brain, iv, 40 mg/kg, 2 min after dose, individual animals IV1-IV4, read-out: Brain product Ic concentration) was 6960 ng/g. It also gave a concentration at 5 min (brain, iv, 40 mg/kg, 5 min after dose, MEAN, read-out: Brain product Ic concentration) of 8170 ng/g, a concentration at 5 min (brain, iv, 40 mg/kg, 5 min after dose, individual animals IV1-IV4, read-out: Brain product Ic concentration) of 8340 ng/g and a concentration at 0.25 h (brain, iv, 40 mg/kg, 15 min after dose, MEAN, read-out: Brain product Ic concentration) of 6760 ng/g. It also gave a concentration at 0.25 h (brain, iv, 40 mg/kg, 15 min after dose, individual animals IV1-IV4, read-out: Brain product Ic concentration) of 5810 ng/g, a concentration at 0.5 h (brain, iv, 40 mg/kg, 0.5h after dose, MEAN, read-out: Brain product Ic concentration) of 7320 ng/g and a concentration at 0.5 h (brain, iv, 40 mg/kg, 0.5h after dose, individual animals IV1-IV4, read-out: Brain product Ic concentration) of 7260 ng/g. The concentration at 0.75 h (brain, iv, 40 mg/kg, 0.75h after dose, MEAN, read-out: Brain product Ic concentration) was 7640 ng/g, the concentration at 0.75 h (brain, iv, 40 mg/kg, 0.75h after dose, individual animals IV1-IV4, read-out: Brain product Ic concentration) was 7680 ng/g and the concentration at 1 h (brain, iv, 40 mg/kg, 1h after dose, MEAN, read-out: Brain product Ic concentration) was 6160 ng/g. For the same compound, the concentration at 2 h (brain, iv, 40 mg/kg, 2h after dose, MEAN, read-out: Brain product Ic concentration) was 7590 ng/g, the concentration at 2 h (brain, iv, 40 mg/kg, 2h after dose, individual animals IV1-IV4, read-out: Brain product Ic concentration) was 7960 ng/g and the concentration at 4 h (brain, iv, 40 mg/kg, 4h after dose, MEAN, read-out: Brain product Ic concentration) was 6760 ng/g.
